Laboratory results: patent publication US12324798B1, “Leonurine nanocomposite hydrogel and preparation methods and applications thereof” (WEST CHINA HOSPITAL OF SICHUAN UNIVERSITY, priority 2023, dated 2025)

Tested on: LPS-stimulated Raw264.7 cells
Experiment: Western blotting of pro-inflammatory cytokines
Type: cell-based
Settings: WB; co-culture with LPS-stimulated Raw264.7 cells for 2 days; vs LPS
Description: In some embodiments, to assess whether M1 macrophage-targeted FA-PDA nanocarriers enhance the efficiency of anti-inflammatory therapy with loaded Leon, FA-PDA@Leon was co-cultured with LPS-stimulated Raw264.7 cells for 2 days, after which western blotting (WB) analysis was performed. A first group (Group 1) in FIG. 4G to FIG. 4J represents the control group (NC), a second group (Group 2) represents the LPS treatment, a third group (Group 3) represents the LPS and Leon co-treatment, a fourth group (Group 4) represents the LPS and PDA co-treatment, the fifth group (Group 5) represents the LPS and PDA@Leon co-treatment, and a sixth group (Group 6) indicates the LPS and FA-PDA@Leon co-treatment.

COc1cc(C(=O)OCCCCNC(=N)N)cc(OC)c1O [Leon, leonurine]
protein expression of pro-inflammatory cytokines (iNOS, IL-13, IL-6, TNF-α): down-regulated
